Assay [1] relates to human TNFR-p55. Description: Solid phase radioligand competition binding assay, E. coli lysates, TNFR-p55. Conditions: for Dilution of E. coli Lysate for 50% Inhibition of 125I-TNFα Binding (ID50) TNFR-p55: 10-fold serial dilutions 10^-2 to 10^-7, < = inhibition but below 50% at 1:100, << = no measurable inhibition at 1:100; for ID50 TNFR-p55 / ID50 TNFR-p75: ratio = 1 no receptor selectivity, > 1 TNFR-p55 selectivity, < 1 TNFR-p75 selectivity. (Loss of bound radioactivity is the signal in a displacement assay; it reports binding, not function.)

The test system of assay [2] is human TNFR-p75. Description: Solid phase radioligand competition binding assay, E. coli lysates, TNFR-p75. To be noted: 10-fold serial dilutions 10^-2 to 10^-7, < = inhibition but below 50% at 1:100, << = no measurable inhibition at 1:100.
In assay [3] the test system is human TNFR-p55. Briefly: Competitive binding of purified muteins to recombinant human TNFR-p55. Conditions: for Decrease in Binding Affinity with Respect to Wildtype TNFR-p55: IC50 of mutein divided by IC50 of wildtype TNFα; for Mutein Concentration for 50% Inhibition of 125I-TNFα Binding (IC50) TNFR-p55: purified protein, 10 ng/ml 125I-TNFα, > = competition but below 50% at 100 μg/ml, >> = no measurable competition at 100 μg/ml. The method, then:
(§1) The cells were disrupted in a French press at a pressure of 20'000 psi or by sonication in a Branson Sonifier (Model 450, 2×2minat maximal output, on ice). […] Proteins were eluted with a linear NaCl gradient (0 to 400 mM in 20 mM Tris pH 9.0) at a flow rate of 1 ml/min. 5 ml fractions were collected and analyzed for the presence of TNFα muteins by SDS-PAGE. Positive fractions were pooled, dialyzed against 20 mM 2-morpholino-ethanesulfonic acid (MES) pH 6.0 and applied to a MonoS column (HR 5/5, LKB-Pharmacia) equilibrated in 20 mM MES pH 6.0. Proteins were eluted with a linear NaCl gradient (0 to 400 mM in 20 mM MES pH 6.0) at a flow rate of 0.5 ml/min. […] After dialysis against PBS the protein concentration was determined by the BCA Protein Assay (Pierce Chemical Company) using wild-type human TNFα as a standard or by absorbance measurements at 280 nm.
(§2) TNFα was labelled by the Iodogen method (Pierce Chemical Company) to a specific activity of about 10-30 μCi/μg. The volume was 100 μl/well and each concentration was assayed in duplicate or triplicate. After three hours at room temperature the wells were thoroughly washed with PBS and counted in a γ-counter.

The subject of assay [4] is human TNFR-p75. Briefly: Competitive binding of purified muteins to recombinant human TNFR-p75. To be noted: for Decrease in Binding Affinity with Respect to Wildtype TNFR-p75: IC50 of mutein divided by IC50 of wildtype TNFα; for Mutein Concentration for 50% Inhibition of 125I-TNFα Binding (IC50) TNFR-p75: purified protein, 10 ng/ml 125I-TNFα. The method, then: as §1, §2

For the substance D143Y: human TNFα mutein D143Y, in assay [1], the “Dilution of E. coli Lysate for 50% Inhibition of 125I-TNFα Binding (ID50) TNFR-p55” value is less than 100 fold and the “ID50 TNFR-p55 / ID50 TNFR-p75” value is on record as less than 0.08. In addition, in assay [2], the “Dilution of E. coli Lysate for 50% Inhibition of 125I-TNFα Binding (ID50) TNFR-p75” value was 1,330 fold. Further, in assay [3], the “Decrease in Binding Affinity with Respect to Wildtype TNFR-p55” value (from here on “Decrease … to Wildtype TNFR-p55”) is on record as > 6,660 fold and the “Mutein Concentration for 50% Inhibition of 125I-TNFα Binding (IC50) TNFR-p55” value is on record as > 100,000 ng/ml. In assay [4], the “Decrease in Binding Affinity with Respect to Wildtype TNFR-p75” value (from here on “Decrease … to Wildtype TNFR-p75”) came to 17.5 fold and the “Mutein Concentration for 50% Inhibition of 125I-TNFα Binding (IC50) TNFR-p75” value is 0.35 µg/mL.
On to D143N: human TNFα mutein D143N, for which, in assay [1], the “Dilution of E. coli Lysate for 50% Inhibition of 125I-TNFα Binding (ID50) TNFR-p55” value is less than 100 fold and the “ID50 TNFR-p55 / ID50 TNFR-p75” value was less than 0.3. Further, the “Dilution of E. coli Lysate for 50% Inhibition of 125I-TNFα Binding (ID50) TNFR-p75” value in assay [2] is given as 330 fold. In addition, in assay [3], the “Decrease … to Wildtype TNFR-p55” value is on record as > 2,500 fold and the “Mutein Concentration for 50% Inhibition of 125I-TNFα Binding (IC50) TNFR-p55” value is recorded as > 100,000 ng/ml. In assay [4], the “Decrease … to Wildtype TNFR-p75” value came to 6.7 fold and the “Mutein Concentration for 50% Inhibition of 125I-TNFα Binding (IC50) TNFR-p75” value was found to be 0.3 µg/mL.
For “D143N-A145R: human TNFα mutein D143N-A145R (Example I)”, in assay [1], the “Dilution of E. coli Lysate for 50% Inhibition of 125I-TNFα Binding (ID50) TNFR-p55” value was less than 100 fold and the “ID50 TNFR-p55 / ID50 TNFR-p75” value was less than 0.8. The “Dilution of E. coli Lysate for 50% Inhibition of 125I-TNFα Binding (ID50) TNFR-p75” value in assay [2] is 125 fold. Further, in assay [3], the “Decrease … to Wildtype TNFR-p55” value is on record as > 2,500 fold and the “Mutein Concentration for 50% Inhibition of 125I-TNFα Binding (IC50) TNFR-p55” value was > 100,000 ng/ml. Besides, in assay [4], the “Decrease … to Wildtype TNFR-p75” value is given as 6.7 fold and the “Mutein Concentration for 50% Inhibition of 125I-TNFα Binding (IC50) TNFR-p75” value is 0.3 µg/mL.
As to A145F: human TNFα mutein A145F, in assay [1], the “Dilution of E. coli Lysate for 50% Inhibition of 125I-TNFα Binding (ID50) TNFR-p55” value is 240 fold and the “ID50 TNFR-p55 / ID50 TNFR-p75” value came to 0.04. For the same substance, in assay [2], the “Dilution of E. coli Lysate for 50% Inhibition of 125I-TNFα Binding (ID50) TNFR-p75” value is on record as 6,000 fold. For the same substance, in assay [3], the “Decrease … to Wildtype TNFR-p55” value is 33 fold and the “Mutein Concentration for 50% Inhibition of 125I-TNFα Binding (IC50) TNFR-p55” value is 500 ng/mL. Besides, in assay [4], the “Decrease … to Wildtype TNFR-p75” value worked out at 1.5 fold and the “Mutein Concentration for 50% Inhibition of 125I-TNFα Binding (IC50) TNFR-p75” value was determined as 0.03 µg/mL.
A145W: human TNFα mutein A145W: in assay [1], the “Dilution of E. coli Lysate for 50% Inhibition of 125I-TNFα Binding (ID50) TNFR-p55” value is given as less than 100 fold and the “ID50 TNFR-p55 / ID50 TNFR-p75” value is listed as less than 1. The “Dilution of E. coli Lysate for 50% Inhibition of 125I-TNFα Binding (ID50) TNFR-p75” value in assay [2] is listed as less than 100 fold. Also, in assay [3], the “Decrease … to Wildtype TNFR-p55” value is reported as 250 fold and the “Mutein Concentration for 50% Inhibition of 125I-TNFα Binding (IC50) TNFR-p55” value is given as 10,000 ng/ml. Also, in assay [4], the “Decrease … to Wildtype TNFR-p75” value stood at 2.5 fold and the “Mutein Concentration for 50% Inhibition of 125I-TNFα Binding (IC50) TNFR-p75” value worked out at 0.1 µg/mL.

Values taken from patent publication US5597899A, “Tumor necrosis factor muteins” (Hoffmann-La Roche Inc., priority 1993, dated 1997).
